Data set [1] deals with fibrovascular growth into the disc (index of angiogenesis). The data set is described as follows: Disc angiogenesis system (DAS). The class given is in vivo, C57BL/6J mice. The settings on record: for angiogenesis in comparison to vehicle: agent in disc pellet: bFGF 20 mcg, Del-1 0.2 M, nicotine 10^-6 M; for effect on nicotine-induced fibrovascular growth: oral indomethacin 20 mcg/ml or LNNA 6 mg/ml. From the text: To study whether nicotine induces angiogenesis in vivo, we employed the disc angiogenesis system (DAS) (Kowalski et al. (1992) Exp Mol Pathol 56(1):1-19; Fajardo et al. (1998) Lab Invest 58:718-7244).
Preparation of the disc The DAS consisted of a disc (11 mm in diameter and 1 mm thickness) made of a polyvinyl alcohol sponge (Kanebo PVA, Rippey Co., Santa Clara, Calif.). Both sides were covered with nitrocellulose cell-impermeable filters (Millipore filters, 0.45 μm in pore diameter, Millipore, SF, Calif.) of the same diameter as the sponge disc, fixed to the sponge using Millipore glue #1 (xx70000.00, Millipore). As a result, cells (and thus vessels) could penetrate or exit only through the rim of the disc (Kowalski et al. (1992) Exp Mol Pathol 56(1):1-19; Fajardo et al. (1998) Lab Invest 58:718-7244).
In order to study the local effect of nicotine on angiogenesis, nicotine was placed in a pellet which was added directly to the disc. Briefly, a 1.5-mm core (pellet) was cut from the disc center. Both the pellets and discs were sterilized prior to assembly in a laminar flow hood. The pellet was loaded with up to 20 mcl (μl) of the nicotine solution and subsequently air-dried. We placed in the disc pellets with either vehicle (PBS, Sigma, Chemical Co., St Louis, Mo., n=5) or nicotine (10^-6 M, Aldrich Chemical Company, Milwaukee, Wis., n=5) to study the effects of locally administered nicotine. For comparison, in some cases basic fibroblast growth factor (bFGF; 20 mcg) or Del-1 protein (0.2 M) was added to the pellet, rather than nicotine. Both bFGF and Del-1 are known to induce angiogenesis. The pellet was then coated with ethylene-vinyl acetate co-polymer (Elvax, Dupont, Chemcentral Corp., Chicago, Ill.) which would permit slow release of the nicotine from the pellet into the disc. The pellet was then re-inserted into the disc before sealing the disc with the millipore filters.
To study the systemic effects of nicotine, in some cases the animals were administered nicotine in their drinking water (see below).
Implantation of the disc The mice were anesthetized with 4% chloralhydrate [intraperitoneal administration (i.p.), 0.1 cc/10 g body weight]. The flanks and posterior surface of the thorax were shaved and cleaned with saturated 70% isopropyl alcohol. A 2-cm incision was made in the skin of the flank contra-lateral to the implantation site. Blunt dissection through the subcutaneous tissue produced a channel into which the saline moistened disc was inserted. The skin was closed with 5.0 silk suture (Kowalski et al. (1992) Exp Mol Pathol 56(1):1-19; Fajardo et al. (1998) Lab Invest 58:718-7244).
Disc removal and preparation Two weeks after disc implantation, the mice were sacrificed with an overdose of 4% chloral hydrate (i.p.) and cervical dislocation. A careful incision was made next to the skin overlying the implanted disc, and the disc was gently removed from the implantation site. Attached tissue was carefully detached from the disc. After removing the disc, one filter was separated from the disc. Discs were then fixed in 10% formalin and embedded flat in paraffin. Subsequently, 5 μm sections were made in a plane through the center of the disc and parallel to the disc surface.
Quantitation of results The disc sections were stained with H&E for light microscopy and histomorphometric measurement of radial growth, and stained with toluidine blue for quantitative determination of total area of fibrovascular growth. Using a video microscope and a computer assisted digital image analysis system (NIH Image 1.59b9), the entire area of fibrovascular growth in the toluidine blue stained disc was calculated and expressed in mm^2. As described in a previous study, total fibrovascular growth area is directly proportional to the total area of the disc occupied by blood vessels (Kowalski et al. (1992) Exp Mol Pathol 56(1):1-19; Fajardo et al. (1998) Lab Invest 58:718-7244).

The test system of data set [2] is capillary density in hindlimb muscle. As for the experimental part:
Mice were anesthetized with 4% chloral hydrate [intraperitoneal administration (i.p.), 0.1 cc/10 g body weight). The medial surface of both hind limbs were shaved and then cleaned with betadine solution. A 1.5-cm longitudinal incision was performed, extending from the knee to the inguinal ligament. Through this incision, the superficial femoral artery was dissected free along its length. After the distal ends of both the external iliac and superficial femoral arteries were ligated with 7.0 (Ethicon), complete excision of the femoral artery was performed. An additional set of mice underwent sham operation. The incisions were then closed with discontinuous stitches of 5.0 silk suture (Ethicon). Ampicillin (1 mg/10 gm body weight) intraperitoneal injection was administered after surgical procedure.
Tissue Preparation. Three weeks after surgery, mice were euthanized with an overdose of 4% chloral hydrate (i.p) and cervical dislocation, and the adductor and semimembranous muscles were collected for capillary density assessment. Briefly, a longitudinal incision in the medial thigh was made to expose the entire hindlimb muscle. The adductor and semimembranous muscles were removed and immediately frozen in OCT. Subsequently, sections 5 μm were taken from the mid-region of each muscle in a transverse orientation. The sections were air dried and fixed in acetone.
Capillary Densitometry. Immunohistochemistry was performed using an alkaline phosphatase assay to identify the endothelial cells. An eosin counterstain was used to differentiate myocytes. Capillaries and myocytes were identified and counted using light microscopy (20×). For each section, four different fields were selected and the total number of capillaries and myocytes per field determined. These values were averaged to provide a determination of capillary density for each experimental limb. To ensure that value for capillary density was not overestimated due to muscle atrophy, or underestimated due to interstitial edema, capillary density was expressed as a ratio of capillaries to myocytes present in the same field.
Daily intramuscular injections of nicotine solution or vehicle were administered (50 μl) for a period of three weeks.

The test system of the next data set is hematopoietic stem cells. The settings on record: 100 μg/ml in drinking water, 6 weeks. The protocol:
(§1) Mice (C57B16j) were given solution containing vehicle (0.4% saccharine in distilled water) or nicotine (100 μg/ml) ad libitum in their drinking water. After 6 weeks, peripheral blood, bone marrow and spleen were harvested. Cell counts were obtained in the blood, spleen and bone marrow, and bone marrow cells were isolated for fluorescent activated cell sorting (FACS). To detect hematopoietic stem cells (HSCs), fluorescently labeled antibodies directed against the following antigens were used: Lineage antigens (CD3,4,5, and 8; B220; Gr1, Mac1 and Ter119), cKit, Sca 1, and Flk2. HSCs were conventionally defined as Lin−, cKit+, Sca1+, and […]. All cells were stained with PI (propidium iodide) to separate live from dead cells.

For data set [3], the system named is endothelial progenitor cells (EPCs). The settings on record: nicotine 0.1 g/L drinking water, 3 weeks after ischemia.
Text: In order to further examine the role of nicotine in induction of angiogenesis, the recruitment of endothelial progenitor cells was studied.
Parabiotic mouse pairs were created to investigate the mobilization and incorporation of precursors to vessel formation in normal and ischemic conditions using a hind limb ischemia model of angiogenesis (as described above), and the effect of nicotine. The parabiotic partners were selected so that they shared all major histocompatibility antigens, and were therefore free of immunological barriers to cell migration and angiogenesis. Assaying for genetic markers unique to one animal of the pair (e.g., the Y chromosome where the pair is made up of a female mouse and a male mouse) provides for unambiguous cell tracking between the mice. The model is further optimized by the use of a second genetic marker to differential the individuals (e.g., a transgene present in one partner and not the other), thus increasing the sensitivity and the accuracy of the identification of the origin of single cells. […]
A short description of the next data set: in vivo. Particulars: C57B16j, mouse, plasma, oral, 100 μg/ml in drinking water. The protocol: as §1
Setting [4] is: highest intramuscular dose (3.2 μg/kg daily, three weeks).

Where two headings read alike, the source gives them in different places.

Consider “bFGF: basic fibroblast growth factor, known to induce angiogenesis; comparison agent in the disc pellet”, for which the “angiogenesis in comparison to vehicle” value in data set [1] was “increased angiogenesis to the same degree”.

Take `COc1ccc2c(c1)c(CC(=O)O)c(C)n2C(=O)c1ccc(Cl)cc1` [indomethacin]: the “effect on nicotine-induced fibrovascular growth” value in data set [1] (local nicotine in disc) and in data set [1] (systemic nicotine) was “blocked” throughout.

Consider `NC(=NCCC[C@H](N)C(=O)O)N[N+](=O)[O-]` [LNNA, L, nitro-arginine], for which the “effect on nicotine-induced fibrovascular growth” value in data set [1] (local nicotine in disc) and in data set [1] (systemic nicotine) was “blocked” each time.

Consider `CN1CCC[C@H]1c1cccnc1` [nicotine, S-3-(1-methyl-2-pyrrolidinyl)pyridine], for which the “capillary density in the ischemic limb” value in data set [2] (0.03 μg/kg intramuscular daily for three weeks, vehicle control 0.35) is 0.67 capillaries/myocyte. For the same molecule, the “angiogenic effect, dose dependence” value in data set [2] (higher intramuscular doses) is “less angiogenesis is observed”. Also, in data set [2] (setting [4]), the “angiogenesis in the ischemic limb” value is “angiogenesis was not increased”; the “toxicity at injection site” value was “some toxicity was observed, with evidence of interstitial edema and myocyte necrosis”. Further, in data set [2] (intermediate intramuscular doses), the “angiogenic effect, dose dependence” value is reported as “greatest effect”. In addition, in data set [2] (intramuscular nicotine in the ischemic limb, untreated non-ischemic limb), the “angiogenic effect in non-ischemic hindlimbs” value was “no angiogenic effect was detected”. Moreover, in the data set on hematopoietic stem cells, the “appearance of mice at the time of sacrifice” value was “appeared healthy”, the “cellularity of the bone marrow” value is “increased”, the “cellularity of the spleen” value is listed as “increased” and the “peripheral white blood cell count” value was “elevated”. In the data set on hematopoietic stem cells (FACS), the “hematopoietic stem cells (kit/sca+ cells) in bone marrow” value was “significant increase”, the “long term HSCs (self-renewing cells) in bone marrow” value is on record as “equal increases” and the “short term HSCs in bone marrow” value was “an increase”. In addition, the number of vessels result in data set [3] is on record as “significant increase”. Also, in data set [3] (saline group 1.6%, P<0.001), the “percentage of vessels that incorporated EPC” value was found to be 7.3%. The “angiogenesis in comparison to vehicle” value in data set [1] is “increased angiogenesis to the same degree”. Besides, the “angiogenesis with systemic nicotine compared with locally administered bFGF and Del-1” value in data set [1] (systemic nicotine in drinking water) is “enhanced angiogenesis to a much greater degree”. For the same molecule, the “angiogenic effect of systemic compared with local nicotine administration” value in data set [1] (systemic versus local nicotine) was “greater than local nicotine administration”. In addition, the concentration at 6 weeks in the data set “in vivo” was found to be 87 ng/mL.

B1: Del1: Del-1 protein, known to induce angiogenesis; comparison agent in the disc pellet (protein, UniProt O43854 24-480, looked up)
EGF-like repeat and discoidin …: DICDPNPCENGGICLPGLADGSFSCECPDGFTDPNCSSVVEVASDEEEPTSAGPCTPNPCHNGGTCEISEAYRGDTFIGYVCKCPRGFNGIHCQHNINECEVEPCKNGGICTDLVANYSCECPGEFMGRNCQYKCSGPLGIEGGIISNQQITASSTHRALFGLQKWYPYYARLNKKGLINAWTAAENDRWPWIQINLQRKMRVTGVITQGAKRIGSPEYIKSYKIAYSNDGKTWAMYKVKGTNEDMVFRGNIDNNTPYANSFTPPIKAQYVRLYPQVCRRHCTLRMELLGCELSGCSEPLGMKSGHIQDYQITASSIFRTLNMDMFTWEPRKARLDKQGKVNAWTSGHNDQSQWLQVDLLVPTKVTGIITQGAKDFGHVQFVGSYKLAYSNDGEHWTVYQDEKQRKDKVFQGNFDNDTHRKNVIDPPIYARHIRILPWSWYGRITLRSELLGCTEEE
Take B1: the “angiogenesis in comparison to vehicle” value in data set [1] is listed as “increased angiogenesis to the same degree”.

The record behind these values is patent US7838539B2, “Nicotine receptor agonists in stem cell and progenitor cell recruitment” (priority 1999, dated 2010).
